For three compounds, inhibition and Activity results are on record in ChEMBL document CHEMBL4616612, “Synthesis and inhibitory effect of cis-guggulsterone on lipopolysaccharide-induced production of nitric oxide in macrophages” (Bioorg Med Chem Lett, 2020).

Calls of active or inactive are those of the source. No cut-off for these calls is given here.

For data set [1], the system named is RAW264.7. Kind of data set: Anti-inflammatory activity in mouse RAW264.7 cells assessed as inhibition of LPS-induced NO production preincubated for 1 hr followed by LPS addition and measured after 24 hrs. Format: functional, cell-based.
Data set [2] concerns RAW264.7. Description: Anti-inflammatory activity in mouse RAW264.7 cells assessed as reduction in LPS-induced COX2 protein level at 6.25 to 12.5 microM by Western blot analysis. Format: functional, cell-based.
The subject of data set [3] is RAW264.7. Kind of data set: Anti-inflammatory activity in mouse RAW264.7 cells assessed as reduction in LPS-induced TNFalpha level preincubated for 2 hrs followed by LPS addition and measured after 18 hrs by ELISA. Format: functional, cell-based. In general terms: In an ELISA, binding on a coated surface is turned into a signal by an enzyme label.
A short description of data set [4]: Cytotoxicity against mouse RAW264 cells assessed as reduction in cell viability at 25 uM incubated for 24 hrs by MTT assay. Type of data set: cell-based. Background: Tetrazolium dyes change colour on reduction, which living cells bring about.
Data set [5] concerns RAW264.7. Description: Anti-inflammatory activity in mouse RAW264.7 cells assessed as reduction in LPS-induced iNOS protein level at 6.25 to 12.5 microM by Western blot analysis. Type of data set: functional, cell-based.
Data set [6] relates to RAW264.7. Description: Anti-inflammatory activity in mouse RAW264.7 cells assessed as reduction in LPS-induced IL6 level preincubated for 2 hrs followed by LPS addition and measured after 18 hrs by ELISA. Format: functional, cell-based.
Data set [7] in a line: Cytotoxicity against mouse RAW264 cells assessed as reduction in cell viability up to 25 uM incubated for 24 hrs by MTT assay. Type of data set: cell-based.

As to `COC(=O)[C@@H](N)CCCNC(=N)N[N+](=O)[O-]`, in data set [1], the inhibition result was “Active”.
Consider `C/C=C1/C(=O)C[C@H]2[C@@H]3CCC4=CC(=O)CC[C@]4(C)[C@H]3CC[C@]12C` [E-GUGGULSTERONE], for which the Activity result in data set [1] is “Dose-dependent effect”; in data set [3], “Dose-dependent effect”; in data set [4], “Toxic”; in data set [6], “Dose-dependent effect”. The outcome in data set [2] and in data set [5] was Active.
Consider `C/C=C1\C(=O)C[C@H]2[C@@H]3CCC4=CC(=O)CC[C@]4(C)[C@H]3CC[C@]12C` [GUGGULSTERONE], for which the Activity entry in data set [1] was “Dose-dependent effect”; in data set [7], “Non-Toxic”.
